Laboratory results taken from patent publication US20260217686A1, “N-Myristoyltransferase Inhibitors And Methods Of Use” (Seattle Children's Hospital (d/b/a Seattle Children's …, priority 2022, published 2026).
Read-outs that look alike come from different tables or passages of the source.

Legend:
P. falciparum = details: background; read-out: EC50 in a P. falciparum growth assay; cited from earlier work
Plasmodium NMT = details: background, cited from earlier work
HepG2 cells = experiment: HepG2 cytotoxicity assay (live/dead staining); assay type: cell-based, human; details: positive control, 10-20 μM
Protocol: (§1) Therefore, the cytotoxicity of the compounds was assessed in the human hepatoma HepG2 cell line. The compounds with PvNMT to HsNMT selectivity index above 20 were shortlisted for further screening.

[1] = HepG2 cytotoxicity assay (live/dead staining); assay type: cell-based, human; details: human
Protocol: as §1

P. vivax hypnozoites = experiment: P. vivax liver stage assay in primary human hepatocytes, hypnozoites; assay type: cell-based; details: Plasmodium vivax, Hepatocyte; for IC50: 8 dpi, primary human hepatocytes, read-out: liver stage Pv hypnozoites IC50
Protocol: Finally, the NMT-binding compounds were evaluated against non-developing P. vivax hypnozoites. […] .

[2] = system: P. falciparum NF54 ring-stage parasites; experiment: P. falciparum blood stage assay (SYBR Green parasite DNA); assay type: cell-based; details: Plasmodium falciparum, NF54, 72 h; read-out: blood stage Pf NF54 IC50
Protocol: To assess whether any of the NMTis developed here could qualify as TCP-1 candidates, the effect of each compound on blood-stage P. falciparum parasites was assessed, as there is currently no well-established in vitro platform for screening P. vivax blood-stage parasites. Synchronized P. falciparum NF54 ring stage parasites were treated for 72 h with each compound at various concentrations, ranging from 0.625 μM to 10 μM, and parasite DNA replication was measured using a fluorescent DNA binding dye (SYBR Green).
Sorbitol-synchronized P. falciparum NF54 ring-stage parasites were cultured at a parasitemia of 0.5% and hematocrit of 1.5% in a 96-well microtiter plate. […] Direct lysis of the blood cells to release the parasite DNA was performed by adding 100 μL of LBS buffer containing SYBR green I DNA binding dye to each well. Plates were incubated at-20° C. overnight for complete lysis and fluorescence was measured at 485 nm (excitation) and 528 nm (emission). ICEstimator regression analysis (antimalarial-icestimator dot net) was used to obtain relative IC50 values for each compound.

[3] = system: P. vivax liver stage schizonts; experiment: P. vivax liver stage assay in primary human hepatocytes, schizonts; details: Plasmodium vivax, Hepatocyte, read-out: liver stage Pv schizonts IC50 (μM)
Protocol: P. vivax sporozoites were obtained from three independent patient isolates. Liver stage infections were cultured in primary human hepatocytes from a single donor lot using a 384-well microculture system as described previously. Cells were infected and treated with NMTis at 20 μM beginning day 5 post-infection until day 8 when the infection rates were quantified via fluorescent microscopy. […] Accordingly, dose-response curves of all the shortlisted NMTis on parasite isolates 3 and 4 were applied over concentrations up to 20 μM (FIGS. 4C and D).
Plasmodium vivax liver stage assays were performed as described previously. Briefly, 384-well plates were seeded with primary hepatocytes from a single donor lot at a density of 25,000 cells per well. The hepatocytes were then infected with 14,000 freshly hand-dissected sporozoites per well. Cells were exposed to the compounds at indicated concentrations from day 3 post-infection, then proceeded to feed cultures every day, replacing the compounds until day 8 post-infection. Cells were fixed with 4% PFA and stained with PvUIS4 antibodies to detect schizonts and hypnozoites forms by confocal microscopy. The images were processed and analyzed using IMARIS (Bitplane Inc.) image analysis software.

HsNMT1 = target: T1, HsNMT1 (Homo sapiens, UniProt P30419); experiment: NMT activity assay (CPM detection of free CoA), human NMT; assay type: biochemical; details: read-out: HsNMT IC50 (nM)*
T1 construct: made in house
T1 sequence (P30419 1-496): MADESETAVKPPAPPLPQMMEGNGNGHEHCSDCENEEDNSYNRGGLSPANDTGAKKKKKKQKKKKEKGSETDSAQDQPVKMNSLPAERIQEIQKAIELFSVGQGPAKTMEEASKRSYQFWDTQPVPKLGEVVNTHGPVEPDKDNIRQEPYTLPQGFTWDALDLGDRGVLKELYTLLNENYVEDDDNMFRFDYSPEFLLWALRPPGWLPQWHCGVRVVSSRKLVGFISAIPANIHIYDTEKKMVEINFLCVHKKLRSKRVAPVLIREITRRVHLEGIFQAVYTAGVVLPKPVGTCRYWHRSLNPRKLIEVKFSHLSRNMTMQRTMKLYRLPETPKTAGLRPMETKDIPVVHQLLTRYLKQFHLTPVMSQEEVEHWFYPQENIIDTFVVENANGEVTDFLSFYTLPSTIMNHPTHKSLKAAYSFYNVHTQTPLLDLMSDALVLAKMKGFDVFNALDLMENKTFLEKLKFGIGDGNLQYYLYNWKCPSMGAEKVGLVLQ

PvNMT = target: T2, PvNMT (Plasmodium vivax, UniProt A5K1A2); experiment: biochemical; assay type: biochemical; details: for selectivity index (SI): ratio of IC50 values for HsNMT1 and PvNMT
T2 construct: Gly-Pro stays on the protein after cleavage) (N, cleaved yes); host or cells: E. coli Rosetta 2 (DE3) pRARE
Description: NMT activity was indirectly measured through the detection of free CoA by the thiol-reactive probe 7-diethylamino-3-(4′-maleimidylphenyl)-4-methylcoumarin (CPM).
This study aimed to identify NMT is with high selectivity for the P. vivax enzyme compared with human NMTs and high potency against the different stages of the P. vivax parasite. For this purpose, a structure-guided approach was applied using previously reported NMT inhibitors as scaffolds to develop a new generation of PvNMT-targeting compounds. The NMT activity of these inhibitors was first measured using biochemical assays through the detection of free CoA by the thiol-reactive probe 7-diethylamino-3-(4′-maleimidylphenyl)-4-methylcoumarin (CPM). Their antiparasitic activity were further evaluated by measuring blood-stage parasite load and inhibition of P. vivax liver-stage schizont and hypnozoite infection. […] Cytotoxicity was assessed in the human hepatoma HepG2 cell line. Synchronized P. falciparum NF54 ring-stage parasites were used for measuring blood-stage parasite load. […] In vitro experiments were repeated at least twice. A single concentration of each inhibitor was initially used to evaluate the inhibition of P. vivax liver stage schizont and hypnozoite infection, followed by the determination of the dose-response relationship.
To measure the activity of the purified PvNMT an assay was adapted from the literature. […] Working stock solutions were made fresh adding DMSO for final concentrations of either 1% or 5% DMSO. […] The plate was incubated for 30 min at room temperature. The enzymatic reaction was initiated by adding 50 μL of reaction substrate containing 10 µM myrCoA and PfARF, as well as 8 μM CPM. Fluorescent readings were taken on a Spectra M2 plate reader (Molecular Devices) with excitation at 385 nm and emission at 485 nm. Fluorescent intensity was measured continuously in one-minute intervals for 45 minutes. Background fluorescence and noise were determined by replacing each constituent of the reaction individually with assay buffer containing 1% DMSO and values were deducted from experimental samples. The enzymatic reactions were set up with varying pHs (6.0-8.5) of the assay buffer to determine optimal reaction conditions with minimal background and off target reactions. In lieu of compound, 10 μL of 10% DMSO/H2O was added to each well. Fluorescence signal was obtained continuously for 45 min. […] IC50 calculations were calculated using Prism (GraphPad Software, Inc).

[4] = Table 1, mean values of two or more determinations
[5] = Table 1, enzyme selectivity calculated as HsNMT IC50/PvNMT IC50

T2 sequence (A5K1A2 entry or part of it): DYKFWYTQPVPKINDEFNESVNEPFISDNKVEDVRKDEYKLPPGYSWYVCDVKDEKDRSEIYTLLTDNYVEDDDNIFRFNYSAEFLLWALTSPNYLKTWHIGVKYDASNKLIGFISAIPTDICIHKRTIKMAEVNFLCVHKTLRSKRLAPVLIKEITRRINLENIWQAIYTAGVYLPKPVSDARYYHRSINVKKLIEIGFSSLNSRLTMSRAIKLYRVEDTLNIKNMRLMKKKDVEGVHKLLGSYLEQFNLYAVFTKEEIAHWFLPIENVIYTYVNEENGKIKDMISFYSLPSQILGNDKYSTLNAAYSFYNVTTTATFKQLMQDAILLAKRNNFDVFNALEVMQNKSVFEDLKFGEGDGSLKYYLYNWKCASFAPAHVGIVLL

In the case of Cc1nn(C)c(C)c1NS(=O)(=O)c1c(Cl)cc(-c2ccnc(N3CCNCC3)c2)cc1Cl [DDD85646], the EC50 (P. falciparum) is listed as 69 nM.

For Cc1nn(C)c(C)c1CCOc1cc(F)ccc1-c1ccc2c(c1)c(CN(C)C)nn2C [IMP-1002], the EC50 (P. falciparum) is given as 10 nM, the IC50 (Plasmodium NMT; previously developed NMT inhibitors) is given as 3 nM and the “selectivity over HsNMT1/2” value (Plasmodium NMT) is given as “up to fourfold”.

For CN[C@@H]1C[C@H]2O[C@@](C)([C@@H]1OC)n1c3ccccc3c3c4c(c5c6ccccc6n2c5c31)C(=O)NC4 [Staurosporine, reference compound], the “effect on HepG2 cell viability” value (HepG2 cells) was “reduced the cell viability”.

Cc1n[nH]c(C)c1CCOc1cc(F)ccc1-c1ccnc(N2CCNCC2)c1 [Compound 12q, 1-(4-(2-(2-(3,5-dimetyl-1H-pyrazol-4-yl)ethoxy)-4-fluorophenyl)piridin-2-yl)piperazine] showed an IC50 at 48 h [1] greater than 20000 nM, an IC50 (P. vivax hypnozoites) of 4400 nM and an IC50 [2] of 380 nM. The IC50 [3] was 2.2 to 3.5 µM, the IC50 (HsNMT1; [4]) was 1630 nM and the “SI**” value (PvNMT; [5]) was 22. It also gave an IC50 (PvNMT; [4]) of 73 nM.

For Cc1nn(C)c(C)c1CCOc1cc(F)ccc1-c1cccc(OCCN(C)C)c1 [Compound 26c, 2-((4′-fluoro-2′-(2-(1,3,5-trimethyl-1H-pyrazol-4-yl)ethoxy)-[1,1′-biphenyl]-3-yl)oxy)-N,N-dimethylethan-1-amine], the IC50 (HsNMT1; Table 2) was 4790 nM, the IC50 (PvNMT; Table 2) was 29.4 nM and the “SI**” value (PvNMT; Table 2, HsNMT IC50/PvNMT IC50) was 162.3.

Work on Cc1nn(C)c(C)c1CCOc1ccc2ccccc2c1-c1ccnc(N2CCNCC2)c1 [Compound 30a, 1-(4-(2-(2-(1,3,5-trimethyl-1H-pyrazol-4-yl)ethoxy)naphthalen-1-yl)pyridin-2-yl)piperazine] yielded an IC50 at 48 h [1] greater than 20000 nM, an IC50 (P. vivax hypnozoites) of 2100 nM and an IC50 [2] of 440 nM. It also gave an IC50 [3] of 2.9 to 4.3 µM, an IC50 (HsNMT1; Table 2) of 24000 nM and an IC50 (PvNMT; Table 2) of 89 nM. The “SI**” value (PvNMT; Table 2, HsNMT IC50/PvNMT IC50) was 269.8 and the “selectivity index (SI)” value (PvNMT) was 269.

With c1cncc(CCOc2cccnc2-c2ccnc(N3CCNCC3)c2)c1 [Compound 12h, 2′-(piperazin-1-yl)-3-(2-(pyridin-3-yl)ethoxy)-2,4′-bipyridine] the IC50 (HsNMT1; [4]) was greater than 40000 nM, the “SI**” value (PvNMT; [5]) was 90.9 and the IC50 (PvNMT; [4]) was 441 nM.

With Cc1nn(C)c(C)c1CCOc1ccccc1-c1cccc(OCCN(C)C)c1 [Compound 26b, N,N-dimethyl-2-((2′-(2-(1,3,5-trimethyl-1H-pyrazol-4-yl)ethoxy)-[1,1′-biphenyl]-3-yl)oxy)-ethan-1-amine] the IC50 (HsNMT1; Table 2) was 9850 nM, the IC50 (PvNMT; Table 2) was 83.2 nM and the “SI**” value (PvNMT; Table 2, HsNMT IC50/PvNMT IC50) was 118.4.

In the case of Cc1nn(C)c(C)c1CCOc1cccnc1-c1cccc(OCCN(C)C)c1 [Compound 26a, N,N-dimethyl-2-(3-(3-(2-(1,3,5-trimethyl-1H-pyrazol-4-yl)ethoxy)pyridin-2-yl)phenoxy)-ethan-1-amine], the IC50 (HsNMT1; Table 2) is reported as greater than 40000 nM, the IC50 (PvNMT; Table 2) is reported as 266 nM and the “SI**” value (PvNMT; Table 2, HsNMT IC50/PvNMT IC50) is reported as 153.8.

With c1cncc(CCOc2cccnc2-c2cccc(N3CCNCC3)c2)c1 [Compound 12g, 1-(3-(3-(2-(pyridin-3-yl)ethoxy)pyridin-2-yl)phenyl)piperazine] the IC50 (HsNMT1; [4]) was 15900 nM, the “SI**” value (PvNMT; [5]) was 152.8 and the IC50 (PvNMT; [4]) was 104 nM.

For c1cncc(CCOc2ccc3ccccc3c2-c2ccnc(N3CCNCC3)c2)c1 [Compound 30c, 1-(4-(2-(2-(pyridin-3-yl)ethoxy)naphthalen-1-yl)pyridin-2-yl)piperazine], the inhibition at 20 µM (P. vivax hypnozoites; 20 μM) was greater than 75%, the IC50 (HsNMT1; Table 2) was greater than 40000 nM and the IC50 (PvNMT; Table 2) was 248 nM. For the same compound, the “SI**” value (PvNMT; Table 2, HsNMT IC50/PvNMT IC50) was 161.

With Fc1ccc(-c2ccnc(N3CCNCC3)c2)c(OCCc2cccnc2)c1 [Compound 12l, 1-(4-(4-fluoro-2-(2-(pyridin-3-yl)ethoxy)phenyl)pyridin-2-yl)piperazine] the IC50 (HsNMT1; [4]) was 1710 nM, the “SI**” value (PvNMT; [5]) was 73 and the IC50 (PvNMT; [4]) was 23.4 nM.

With Cc1nn(C)c(C)c1CCOc1cc(F)ccc1-c1cc(N2CCNCC2)ncn1 [Compound 16b, 4-(4-fluoro-2-(2-(1,3,5-trimethyl-1H-pyrazol-4-yl)ethoxy)phenyl)-6-(piperazin-1-yl)pyrimidine] the IC50 (HsNMT1; [4]) was 27600 nM, the “SI**” value (PvNMT; [5]) was 164.4 and the IC50 (PvNMT; [4]) was 168 nM. For the same compound, the “selectivity index (SI)” value (PvNMT) was 164.
